Measured values as given in US6900033B2, “Methods and compositions for modulating ACE-2 activity” (Human Genome Sciences, Inc., priority 2001, dated 2005).
Values joined by “and” are separate entries in the source; they are usually repeats but may differ in a detail not shown here. Identical values can stand only once. “Also recorded” adds a separate entry of the source. Positions of bridges follow the written chain, without caps; N, C: chain ends.

Experiments:
ACE-2 [1] = target: T1, ACE-2 (Homo sapiens, UniProt Q9BYF1); test: Fluorometric ACE-2 inhibition assay with peptide M-2195 as substrate; format: biochemical; details: ACE-2 activity, M-2195 substrate, enzyme pre-incubated 30 minutes with inhibitor, 100 mM TRIS pH 7.4
T1 construct: nucleotides corresponding to the extracellular domain (M1-S740); FLAG; made in house; host or cells: Sf9 insect cells (recombinant baculovirus, transfer vector pA2); purified from conditioned media
T1 sequence (Q9BYF1 18-740): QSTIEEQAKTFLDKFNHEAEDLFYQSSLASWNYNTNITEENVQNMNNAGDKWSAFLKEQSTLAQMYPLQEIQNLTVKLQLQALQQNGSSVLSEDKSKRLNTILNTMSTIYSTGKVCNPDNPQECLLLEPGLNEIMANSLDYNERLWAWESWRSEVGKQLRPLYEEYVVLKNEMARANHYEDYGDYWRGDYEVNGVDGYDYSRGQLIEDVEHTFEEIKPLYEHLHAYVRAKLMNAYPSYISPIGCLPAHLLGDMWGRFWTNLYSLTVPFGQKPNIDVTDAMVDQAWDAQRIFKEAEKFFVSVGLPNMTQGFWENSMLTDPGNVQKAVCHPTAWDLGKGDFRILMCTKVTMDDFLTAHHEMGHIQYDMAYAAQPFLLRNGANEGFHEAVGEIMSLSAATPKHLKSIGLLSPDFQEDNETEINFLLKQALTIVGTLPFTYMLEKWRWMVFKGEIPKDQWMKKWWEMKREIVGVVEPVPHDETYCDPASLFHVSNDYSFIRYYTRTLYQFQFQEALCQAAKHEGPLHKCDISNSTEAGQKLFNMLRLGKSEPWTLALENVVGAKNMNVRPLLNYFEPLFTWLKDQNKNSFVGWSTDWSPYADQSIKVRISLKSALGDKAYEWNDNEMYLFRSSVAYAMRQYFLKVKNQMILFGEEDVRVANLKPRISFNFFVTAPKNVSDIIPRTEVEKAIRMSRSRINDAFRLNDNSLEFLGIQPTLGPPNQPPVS
Procedure: Assay mixture was prepared first by pre-incubating (30 minutes, room temperature) the enzyme with the inhibitor (0.45 μg ([…]) ACE-2, 0-0.5 μM inhibitor rage, up to 90 […] volume with 100 mM TRIS pH 7.4, 0.1% Tween-20, 0.4% DMSO) in each well, in triplicate, by dispensing volumes using a repeat pipetter (Rainin) into a 96-well clear-bottom back plate (Costar, 07-200-590). […] Substrate stock (10 μL of 10× concentration) was added to each well to be tested in blocks of three vertically down the plate. The reaction was monitored on a Spectrafluor Plus (Tecan) at an excitation wavelength of 340 nm and an emission wavelength of 400 nm (+/−35 nm) every 30 seconds for a time period of 10 minutes.
ACE-2 cleaves off the C-terminal lysine from the peptide with a concomitant increase in fluorescence signal.
The assays were performed in 96-well clear-bottom black plates (Costar, 07-200-590). In each well, 0.45 μg (5 pmoles) of ACE-2 is added to 90 μL of an assay solution containing 100 mM TRIS at pH 7.4, 0.1% Tween, and 0.4% DMSO. Substrate stock at 10 μL of 10× concentration is added to each well (for example, 10 μL of 1 mM stock for a final 100 μM concentration). The reaction was monitored on a Spectrafluor Plus (Tecan) at an excitation wavelength of 340 nm and an emission wavelength of 400 nm (+/−35 nm) every 30 seconds up to 10 minutes. All samples were measured in triplicate.

ACE-2 [2] = target: T1, ACE-2; details: literature (Donoghue 2000; Tipnis 2000); cited from earlier work
[3] = system: isolated aortic vascular rings; test: Developed isometric tension of isolated rat aortic vascular rings; details: for potentiation of angiotensin II-mediated vasoconstriction: peptide combined with angiotensin II
Description: The effects of graded doses of A1-9 (Fields et al., Peptide Research 4: 95-101 (1991)) or A1-10 (substrate control) alone or in combination (Tallarida, Drug Synergism and Dose-Effect Data Analysis, Chapman and Hall/CRC, New York (2000), Tallarida et al., Life Science 61: PL417-425 (1997)) with angiotensin II were examined on isolated aortic vascular rings developed tension in response to vasoactive substances. Aortas were removed from mature male Sprague-Dawley rats, cleared of connective tissue, and cut into 1 mm rings. Rings were mounted to an isometric force transducer and placed in Krebs-Henseleit solution bubbled with 95% 02/5% C02 at 37° C. Rings were exposed to a 2 g preload, relaxed and then exposed to various concentrations of angiotensin peptides alone or in combination. Following angiotensin peptide dosing, rings were fully constricted with KCl to determine the maximum degree of vasoconstriction.
The maximum tension developed by A1-9 was minimal and always less than that of angiotensin II.

[4] = system: awake, free-ranging Sprague-Dawley rats; test: Arterial pressure in awake, free-ranging Sprague-Dawley rats, intravenous infusion; format: in vivo, rat
Procedure: To investigate the effects of A1-9 on arterial pressure, A1-9 was administered to awake, free-ranging Sprague-Dawley rats via indwelling intravenous and arterial catheters. Intravenous infusion of A1-9 (1-3 μg/kg/min) in the awake rat produced a dose-dependent tonic increase in mean arterial pressure to a maximum of approximately 30 mmHg (FIG. 2). […] These responses seen with A1-9 were similar in magnitude to those induced by angiotensin II.
To examine any interactions induced by coadministration of A1-9 and angiotensin II, arterial pressure was monitored in the awake rat after they received either A1-9 (1 μg/kg/min) or saline coinfused with angiotensin 11 (1-100 ng/kg/min).

isolated rat aorta = details: literature (Oparil 1971); cited from earlier work
anesthetized rats = details: literature (Oparil 1971); cited from earlier work
anesthetized dogs = details: literature (Oparil 1971); cited from earlier work
[5] = intravenous infusion 1-3 μg/kg/min, awake rat

Ac-AGWVLCFEWEDCDEKGTEGGG-NH2 (disulfide 6-12 (inferred)) [DX-527]
Inhibition (ACE-2 [1]): −

C[C@H](CS)C(=O)N1CCC[C@H]1C(=O)O [captopril]
block of ACE-2 conversion of angiotensin I to angiotensin 1-9 (ACE-2 [2]): not blocked

Ac-GSDQNCFAMYCFEFAPGEGGG-NH2 (disulfide 6-11 (inferred)) [DX-503]
Inhibition (ACE-2 [1]): −

angiotensin I (DRVYIHPFHL; Angiotensin-1; UniProt P01019 25-34, looked up) [substrate control; the ACE and ACE-2 substrate]
potentiation of angiotensin II-mediated vasoconstriction [3]: failed to potentiate

Ac-AGEGNCFLIGPWCFEFGTEGGG-NH2 (disulfide 6-13 (inferred)) [DX-504]
Inhibition (ACE-2 [1]): −

Ac-GSNDYCTVFTGALFCLDFAPEGGG-NH2 (disulfide 6-15 (inferred)) [DX-507]
Inhibition (ACE-2 [1]): −

Ac-GDDDDCGWIGFANFHLCLHGDPEGGG-NH2 (disulfide 6-17 (inferred)) [DX-510]
Inhibition (ACE-2 [1]): −

Ac-GSLEMCEALFCVEFAPGEGGG-NH2 (disulfide 6-11 (inferred)) [DX-502]
Inhibition (ACE-2 [1]): −

des-Leu^10-angiotensin I (DRVYIHPFH; Angiotensin 1-9; UniProt P01019 25-33, looked up) [A1-9, nonapeptide formed by removal of the C-terminal leucine from angiotensin I]
Al-9 % Max. Developed Force ([3]; Emax, A1-9 alone, 1-30 nM, mature rat aortic rings, % of KCl maximum, one value per experiment 1-5, listed as Al-9): 3.5% and 0% and 7.5% and 6.4% and 3.2% | potentiation of angiotensin II-mediated vasoconstriction [3]: synergistic or supraadditive potentiation | vasoconstrictor activity of the peptide alone ([3]; rat aortic rings): no effect on vascular tone; also recorded: virtually devoid of activity | factor of increase of the relative potency of angiotensin II beyond simple additive potentiation ([3]; shift of angiotensin II dose-effect curve by A1-9, FIG. 1): 11.6 (95% confidence limits of 3.02-44.7) | effect on the pressor response to angiotensin II ([4]; coinfused with angiotensin II 1-100 ng/kg/min, A1-9 at 1 μg/kg/min): potentiated the pressor response elicted by angiotensin II in an additive fashion | heart rate [4, 5]: decreased in a dose-dependent manner | maximum increase in mean arterial pressure [4, 5]: approximately 30 mmHg | pulse pressure (systolic - diastolic) [4, 5]: elevated | vasoconstrictor activity (isolated rat aorta): weak vasoconstrictor | pressor activity (anesthetized rats): weak pressor activity | pressor activity (anesthetized dogs): weak pressor activity

Ac-AGVYFCFDWEQDCDEMGTEGGG-NH2 (disulfide 6-13 (inferred)) [DX-528]
Inhibition (ACE-2 [1]): −
